Assay results as given in patent US20140323500A1, “NADPH OXIDASE 4 INHIBITORS AND USE THEREOF” (GENKYOTEX SA, priority 2011, published 2014).

System: female mice subjected to ovariectomy
Experiment: Ovariectomy-induced osteoporosis (bone loss) in mice
Type: in vivo
Protocol: BMD of the left femur was measured by peripheral quantitative computed tomography (QCT) using an XCT Research QCT machine (Stratec Medizintechnik, Pforzheim, Germany). One slice (0.2 mm thick) in the mid-diaphysis of the femur and 3 slices in the distal femoral metaphysis located 1.5, 2, and 2.5 mm proximal to the articular surface of the knee joint were measured. BMD values of the distal femoral metaphysic were calculated as the mean of 3 slices. A voxel size of 0.070 mm and a threshold of 710 mg/cm^3 were used for calculation of BMD as described in Hofbauer et al., 2009, Arthritis Rheum., 60(5):1427-1437.
The control group received daily gavages by the solvent.
To study the latter effect, female mice were subjected to ovariectomy to induce osteoporosis and the effect of pharmacological inhibition of Nox4 with a Nox4 inhibitor as well as acute genetic knockout of the protein was studied. For this, mice were subjected to ovariectomy 8 weeks after birth and treatment at 60 mg/kg with a Nox4 inhibitor of the invention was started 2 days after the operation and continued throughout the study (6 weeks).
3, Hamburg was used which completely blocks osteoclast activity. […] For this, bones were scanned with a skyscan 1176 and bone density was analysed with the integrated software using two phantoms with 0.25 g/cm^3 and 0.75 g/cm^3 as reference. A 2 mm portion of the femur from the tibia plateau was analysed for total and trabecular bone density by the software provided by the manufacturer of the machine. […] For this method, the femurs were loaded to failure by 3-point bending tests using a Zwick Z020/TN2A materials testing machine (Zwick, Ulm, Germany) with a 1 kN force detector, and a force resolution of 0.01N. The distance between the lower supports for the bending tests was 5 mm. Crosshead speed during testing was 0.2 mm/minute for all measurements. From the force-displacement data, ultimate force (Fmax; in N) was calculated.

Compound: COc1ccc(-c2c3c(=O)n(-c4ccccc4OC)[nH]c3cc(=O)n2Cc2cccnc2)c(F)c1 [Compound (1), 4-(2-fluoro-4-methoxyphenyl)-2-(2-methoxyphenyl)-5-(pyridin-3-ylmethyl)-1H-pyrazolo[4,3-c]pyridine-3,6(2H,5H)-dione]
- absolute bone density (total) (distal femur 6 weeks after ovariectomy, compound 1 at 20 and 60 mg/kg, pamidronat 10 mg/kg once a week, microCT, FIG. 6A): increased absolute bone density
- absolute trabecular bone density (distal femur 6 weeks after ovariectomy, compound 1 at 20 and 60 mg/kg, pamidronat 10 mg/kg once a week, microCT, FIG. 6B): increased
- relative inhibition of ovarectomy-induced total bone loss (distal femur 6 weeks after ovariectomy, compound 1 at 20 and 60 mg/kg, pamidronat 10 mg/kg once a week, microCT, FIG. 6C): ~50%
- relative inhibition of trabecular bone loss (distal femur 6 weeks after ovariectomy, compound 1 at 20 and 60 mg/kg, pamidronat 10 mg/kg once a week, microCT, FIG. 6D): approximately 60%
- bone breaking strength (3-point breaking test) (highest concentration (of 20 and 60 mg/kg), femur, 6 weeks after ovariectomy, FIG. 6E): significant increase in bone breaking strength
